# Experimental data: patent US12377104B1, “Methods for treating a fatty liver disease” (Madrigal Pharmaceuticals, Inc., priority 2024, dated 2025)
# Tests used:
# NASH liver fibrosis = assay: MAESTRO-NASH: qFibrosis assessment of biopsies; format: in vivo, human; settings: Week 52 biopsy, compared with placebo
# Source text: Fibrosis stage predicts clinical outcomes in NASH/metabolic-associated steatohepatitis (MASH), with liver biopsies as the regulatory standard. Ordinal fibrosis staging on stained slides may limit the ability to visualize dynamic fibrosis features throughout the liver lobule. qFibrosis, an AI-driven fibrosis assessment methodology that utilizes laser driven (SHG) collagen detection on unstained biopsy slides, has identified 30 specific fibrotic features on NASH liver biopsies that may be predictive of liver-related clinical outcomes, progression to cirrhosis and decompensated cirrhosis based on the SteatoSITE population. Non-invasive measures such as baseline MRE or FibroScan VCTE, ELF, and other non-invasive fibrosis markers also predict progression to cirrhosis and decompensated cirrhosis. SteatoSITE contains integrated clinical and pathological data from 940 cases across the NAFLD spectrum with outcome data from electronic health record and pathologist-assigned fibrosis stage and RNA on baseline biopsy. […] Baseline and Week 52 biopsies from MAESTRO-NASH were analyzed for 30 qFibrosis features identified by SteatoSITE that are associated with progression of NASH fibrosis to liver decompensation, and six features with the strongest correlations between baseline pathologist scoring and non-invasive tests were identified.
# [1] = tested on: noncirrhotic NASH with stage 2 or stage 3 fibrosis; assay: Trial 1 Month 12 histopathology efficacy analysis (F2 and F3); format: in vivo, human
# Description: Patients were on stable doses of medications for diabetes, dyslipidemia, and hypertension. […] Two pathologists, Pathologist A and Pathologist B, independently read the liver biopsies for each patient. […] Liver fibrosis was evaluated on the NASH Clinical Research Network (CRN) fibrosis score as 0 to 4. […] No worsening of steatohepatitis was defined as no increase in NAS for ballooning, inflammation, or steatosis. […] Estimated using the Mantel-Haenszel method stratified by baseline type 2 diabetes status (presence or absence) and fibrosis stage (F2 or F3). 95% stratified Newcombe confidence intervals (CIs) are provided. Patients with missing liver biopsy at Month 12 were considered a non-responder.
# CYP2C8 = target: T1, CYP2C8 (Homo sapiens, UniProt P10632); assay: In vitro metabolism by CYP enzymes; format: in vitro ADME
# T1 sequence (P10632 1-490): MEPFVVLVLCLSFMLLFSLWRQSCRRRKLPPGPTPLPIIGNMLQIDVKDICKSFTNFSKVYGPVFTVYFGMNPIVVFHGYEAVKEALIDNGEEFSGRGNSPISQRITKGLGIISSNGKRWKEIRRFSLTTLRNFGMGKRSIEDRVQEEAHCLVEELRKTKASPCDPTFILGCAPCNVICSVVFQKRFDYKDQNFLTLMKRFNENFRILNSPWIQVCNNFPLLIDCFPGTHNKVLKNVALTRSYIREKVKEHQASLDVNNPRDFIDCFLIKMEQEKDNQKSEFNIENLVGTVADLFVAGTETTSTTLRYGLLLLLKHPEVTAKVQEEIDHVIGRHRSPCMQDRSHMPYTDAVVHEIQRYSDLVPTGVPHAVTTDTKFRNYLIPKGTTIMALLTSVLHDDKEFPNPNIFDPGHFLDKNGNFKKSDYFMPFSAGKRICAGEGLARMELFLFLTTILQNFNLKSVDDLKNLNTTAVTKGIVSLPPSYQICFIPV
# [2] = MAESTRO-NASH: sex hormones at week 52; settings: for Estradiol (female), LS mean CFB / Estradiol (female), LS mean difference from PBO (CFB) / Estradiol (male), LS mean CFB / Estradiol (male), LS mean difference from PBO (CFB) / FSH (female), LS mean CFB / FSH (female), LS mean difference from PBO (CFB) / FSH (male), LS mean CFB / FSH (male), LS mean difference from PBO (CFB) / Free testosterone (female), LS mean CFB / Free testosterone (female), LS mean difference from PBO (CFB) / Free testosterone (male), LS mean CFB / Free testosterone (male), LS mean difference from PBO (CFB) / LH (female), LS mean CFB / LH (female), LS mean difference from PBO (CFB) / LH (male), LS mean CFB / LH (male), LS mean difference from PBO (CFB) / SHBG (female), LS mean % CFB / SHBG (female), LS mean CFB / SHBG (female), LS mean difference from PBO (% CFB) / SHBG (female), LS mean difference from PBO (CFB) / SHBG (male), LS mean % CFB / SHBG (male), LS mean CFB / SHBG (male), LS mean difference from PBO (% CFB) / SHBG (male), LS mean difference from PBO (CFB) / SHBG, LS mean % CFB / SHBG, LS mean CFB / SHBG, LS mean difference from PBO (% CFB) / SHBG, LS mean difference from PBO (CFB) / Testosterone (female), LS mean CFB / Testosterone (female), LS mean difference from PBO (CFB) / Testosterone (male), LS mean CFB / Testosterone (male), LS mean difference from PBO (CFB): Week 52
# [3] = Excretion after 100 mg radio-labeled oral dose; format: in vivo, human
# Source text: A metabolite MGL-3623 accounted for 3.3% and 16% of the dose recovered in feces and urine, respectively.
smiles,measurement,setting,value
"CC(C)c1cc(Oc2c(Cl)cc(-n3nc(C#N)c(=O)[nH]c3=O)cc2Cl)n[nH]c1=O [Resmetirom, 2-(3,5-dichloro-4-((5-isopropyl-6-oxo-1,6-dihydropyridazin-3-yl)oxy)phenyl)-3,5-dioxo-2,3,4,5-tetrahydro-1,2,4-triazine-6-carbonitrile]",total qFibrosis scores,NASH liver fibrosis,highly significant improvement in fibrosis
same,"Improvement in liver fibrosis, no worsening of steatohepatitis: response rate, Pathologist A",[1]; 80 mg,23%
same,"Improvement in liver fibrosis, no worsening of steatohepatitis: response rate, Pathologist B",[1]; 80 mg,23%
same,"Improvement in liver fibrosis: difference in response rate vs. placebo (95% CI), Pathologist A",[1]; 80 mg,"8 (2, 14)"
same,"Improvement in liver fibrosis: difference in response rate vs. placebo (95% CI), Pathologist B",[1]; 80 mg,"11 (5, 17)"
same,"Resolution of steatohepatitis, no worsening of fibrosis: response rate, Pathologist A",[1]; 80 mg,27%
same,"Resolution of steatohepatitis, no worsening of fibrosis: response rate, Pathologist B",[1]; 80 mg,26%
same,"Resolution of steatohepatitis: difference in response rate vs. placebo (95% CI), Pathologist A",[1]; 80 mg,"14 (8, 20)"
same,"Resolution of steatohepatitis: difference in response rate vs. placebo (95% CI), Pathologist B",[1]; 80 mg,"17 (11, 23)"
same,"Improvement in liver fibrosis, no worsening of steatohepatitis: response rate, Pathologist A",[1]; 100 mg,28%
same,"Improvement in liver fibrosis, no worsening of steatohepatitis: response rate, Pathologist B",[1]; 100 mg,24%
same,"Improvement in liver fibrosis: difference in response rate vs. placebo (95% CI), Pathologist A",[1]; 100 mg,"13 (7, 20)"
same,"Improvement in liver fibrosis: difference in response rate vs. placebo (95% CI), Pathologist B",[1]; 100 mg,"11 (5, 17)"
same,"Resolution of steatohepatitis, no worsening of fibrosis: response rate, Pathologist A",[1]; 100 mg,36%
same,"Resolution of steatohepatitis, no worsening of fibrosis: response rate, Pathologist B",[1]; 100 mg,24%
same,"Resolution of steatohepatitis: difference in response rate vs. placebo (95% CI), Pathologist A",[1]; 100 mg,"23 (16, 30)"
same,"Resolution of steatohepatitis: difference in response rate vs. placebo (95% CI), Pathologist B",[1]; 100 mg,"15 (9, 21)"
same,metabolizing CYP enzymes,CYP2C8,metabolized by CYP2C8 and is not metabolized by other cytrochrome P450 (CYP) enzymes
same,"Estradiol (female), LS mean CFB",[2]; 80 mg,17.7 ng/L
same,"Estradiol (female), LS mean difference from PBO (CFB)",[2]; 80 mg,15.9 ng/L
same,"Estradiol (male), LS mean CFB",[2]; 80 mg,8.9 ng/L
same,"Estradiol (male), LS mean difference from PBO (CFB)",[2]; 80 mg,9.0 ng/L
same,"FSH (female), LS mean CFB",[2]; 80 mg,−0.54 mIU/mL
same,"FSH (female), LS mean difference from PBO (CFB)",[2]; 80 mg,0.79 mIU/mL
same,"FSH (male), LS mean CFB",[2]; 80 mg,1.1 mIU/mL
same,"FSH (male), LS mean difference from PBO (CFB)",[2]; 80 mg,1.1 mIU/mL
same,"Free testosterone (female), LS mean CFB",[2]; 80 mg,0 nmol/L
same,"Free testosterone (female), LS mean difference from PBO (CFB)",[2]; 80 mg,0 nmol/L
same,"Free testosterone (male), LS mean CFB",[2]; 80 mg,0.04 nmol/L
same,"Free testosterone (male), LS mean difference from PBO (CFB)",[2]; 80 mg,0.02 nmol/L
same,"LH (female), LS mean CFB",[2]; 80 mg,−0.93 mIU/mL
same,"LH (female), LS mean difference from PBO (CFB)",[2]; 80 mg,−0.33 mIU/mL
same,"LH (male), LS mean CFB",[2]; 80 mg,1.7 mIU/mL
same,"LH (male), LS mean difference from PBO (CFB)",[2]; 80 mg,1.8 mIU/mL
same,"SHBG (female), LS mean % CFB",[2]; 80 mg,193.0%
same,"SHBG (female), LS mean CFB",[2]; 80 mg,74.1 nmol/L
same,"SHBG (female), LS mean difference from PBO (% CFB)",[2]; 80 mg,177.4%
same,"SHBG (female), LS mean difference from PBO (CFB)",[2]; 80 mg,73.3 nmol/L
same,"SHBG (male), LS mean % CFB",[2]; 80 mg,108.0%
same,"SHBG (male), LS mean CFB",[2]; 80 mg,41.9 nmol/L
same,"SHBG (male), LS mean difference from PBO (% CFB)",[2]; 80 mg,107.3%
same,"SHBG (male), LS mean difference from PBO (CFB)",[2]; 80 mg,40.4 nmol/L
same,"SHBG, LS mean % CFB",[2]; 80 mg,157.5%
same,"SHBG, LS mean CFB",[2]; 80 mg,60.2 nmol/L
same,"SHBG, LS mean difference from PBO (% CFB)",[2]; 80 mg,148.5%
same,"SHBG, LS mean difference from PBO (CFB)",[2]; 80 mg,58.9 nmol/L
same,"Testosterone (female), LS mean CFB",[2]; 80 mg,0.15 µg/L
same,"Testosterone (female), LS mean difference from PBO (CFB)",[2]; 80 mg,0.15 µg/L
same,"Testosterone (male), LS mean CFB",[2]; 80 mg,2.6 µg/L
same,"Testosterone (male), LS mean difference from PBO (CFB)",[2]; 80 mg,2.2 µg/L
same,"Estradiol (female), LS mean CFB",[2]; 100 mg,30.6 ng/L
same,"Estradiol (female), LS mean difference from PBO (CFB)",[2]; 100 mg,28.8 ng/L
same,"Estradiol (male), LS mean CFB",[2]; 100 mg,11.0 ng/L
same,"Estradiol (male), LS mean difference from PBO (CFB)",[2]; 100 mg,11.2 ng/L
same,"FSH (female), LS mean CFB",[2]; 100 mg,0.63 mIU/mL
same,"FSH (female), LS mean difference from PBO (CFB)",[2]; 100 mg,2.0 mIU/mL
same,"FSH (male), LS mean CFB",[2]; 100 mg,1.7 mIU/mL
same,"FSH (male), LS mean difference from PBO (CFB)",[2]; 100 mg,1.7 mIU/mL
same,"Free testosterone (female), LS mean CFB",[2]; 100 mg,0 nmol/L
same,"Free testosterone (female), LS mean difference from PBO (CFB)",[2]; 100 mg,0 nmol/L
same,"Free testosterone (male), LS mean CFB",[2]; 100 mg,0.03 nmol/L
same,"Free testosterone (male), LS mean difference from PBO (CFB)",[2]; 100 mg,0.01 nmol/L
same,"LH (female), LS mean CFB",[2]; 100 mg,0.80 mIU/mL
same,"LH (female), LS mean difference from PBO (CFB)",[2]; 100 mg,1.4 mIU/mL
same,"LH (male), LS mean CFB",[2]; 100 mg,1.9 mIU/mL
same,"LH (male), LS mean difference from PBO (CFB)",[2]; 100 mg,2.0 mIU/mL
same,"SHBG (female), LS mean % CFB",[2]; 100 mg,251.8%
same,"SHBG (female), LS mean CFB",[2]; 100 mg,94.0 nmol/L
same,"SHBG (female), LS mean difference from PBO (% CFB)",[2]; 100 mg,236.2%
same,"SHBG (female), LS mean difference from PBO (CFB)",[2]; 100 mg,93.2 nmol/L
same,"SHBG (male), LS mean % CFB",[2]; 100 mg,174.0%
same,"SHBG (male), LS mean CFB",[2]; 100 mg,60.8 nmol/L
same,"SHBG (male), LS mean difference from PBO (% CFB)",[2]; 100 mg,173.3%
same,"SHBG (male), LS mean difference from PBO (CFB)",[2]; 100 mg,59.3 nmol/L
same,"SHBG, LS mean % CFB",[2]; 100 mg,217.4%
same,"SHBG, LS mean CFB",[2]; 100 mg,80.7 nmol/L
same,"SHBG, LS mean difference from PBO (% CFB)",[2]; 100 mg,208.4%
same,"SHBG, LS mean difference from PBO (CFB)",[2]; 100 mg,79.4 nmol/L
same,"Testosterone (female), LS mean CFB",[2]; 100 mg,0.19 µg/L
same,"Testosterone (female), LS mean difference from PBO (CFB)",[2]; 100 mg,0.19 µg/L
same,"Testosterone (male), LS mean CFB",[2]; 100 mg,3.5 µg/L
same,"Testosterone (male), LS mean difference from PBO (CFB)",[2]; 100 mg,3.0 µg/L
same,levels of sex hormones,[2]; in vivo,little changed from baseline
same,total radioactive dose recovered in feces,[3],approximately 67%
same,total radioactive dose recovered in urine,[3],24%
same,unchanged labeled drug in feces,[3],not detected
same,"unchanged labeled drug, dose recovered in urine",[3],1%
